Measured values taken from PMC5736175, “Nicotinic alpha 7 receptor agonists EVP-6124 and BMS-933043, attenuate scopolamine-induced deficits in visuo-spatial paired associates learning” (PLoS ONE, 2017).
Where “and” joins values, the source holds several entries; their conditions need not be identical. Equal entries are not always repeated.

Legend:
[1] = tested on: scopolamine-treated cynomolgus monkeys; experiment: Scopolamine-induced impairment of vsPAL task performance, treatment + scopolamine; assay type: in vivo, cynomolgus monkeys (Macaca Fasicularis); details: for Average Response Latency (Avg Rsp Lat) / Eventual Correct, 3 Stimuli / Eventual Correct, 4 Stimuli / Eventual Correct, Overall Mean % Correct / Initial Correct, 3 Stimuli / Initial Correct, 4 Stimuli / Initial Correct, Overall Mean % Correct / Initial correct, 2 Stimuli / % Completion / Eventual Correct, 2 Stimuli: im + Scopolamine
[2] = Plasma concentration in vsPAL subjects immediately after completion of testing (LC-MS/MS); details: for concentration at 69.8 min: cynomolgus monkey, in vivo
Procedure: For all compounds, plasma pharmacokinetic studies were conducted in a separate cohort of cynomolgus monkeys (N = 2–3 subjects per dose) before beginning vsPAL testing to help guide dose selection. Blood samples were obtained with the animals awake and sitting in a primate chair. For most test sessions with BMS-933043 and EVP-6124, plasma samples were also taken from a subset of vsPAL subjects (N = 4–5) immediately after completion of testing (mean (SD) sample collection time = 69.8 (9.8) min post injection).
Plasma concentrations of test compounds were determined using LC-MS/MS assays. In brief, 50 μL plasma and sample containing compounds was extracted by protein precipitation method with 150 μL acetonitrile containing an internal standard. A 5 μL sample of supernatant was injected into the LC-MS/MS system. Analytes were separated by reversed phase chromatography and detection of each analyte was achieved through selected reaction monitoring mode of mass spectrometry. Samples were quantified by calculated peak area ratio of analyte and internal standard against a calibration curve.

human nAChR α7 = tested on: human nAChR α7; parameters: method as in PMID 27467081; details: intrinsic activity; HEK293 cells expressing human nAChR α7; cited from earlier work
5-HT3 receptor = details: cited from earlier work
[3] = BMS-933043 0.3 mg/kg, individual animals, 0.3 mg/kg
[4] = BMS-933043 1.0 mg/kg, group MEAN
[5] = BMS-933043 1.0 mg/kg, individual animals, 1 mg/kg
[6] = all doses of the study, for EVP-6124 study (1)
[7] = compound 0.03 mg/kg i.m. + Scopolamine
[8] = compound 0.10 mg/kg i.m. + Scopolamine
[9] = compound 0.30 mg/kg i.m. + Scopolamine
[10] = compound 1.00 mg/kg i.m. + Scopolamine

For `c1cn(-c2cc(NC3=NC[C@@]4(CN5CCC4CC5)O3)ncn2)cn1` [BMS-933043, (2R)-N-(6-(1H-imidazol-1-yl)-4-pyrimidinyl)-4'H-spiro[4-azabicyclo[2.2.2]octane-2,5'-[1, 3]oxazol]-2'-amine], the “Average Response Latency (Avg Rsp Lat)” value [1, 3] was 1690.5 ms and 1666.2 ms and 1269.7 ms and 2215.8 ms and 1344.9 ms and 1971.0 ms and 2262.1 ms, the “Eventual Correct, 3 Stimuli” value [1, 3] was 100.0% and 60.0% and the “Eventual Correct, 4 Stimuli” value [1, 3] was 80.0% and 100.0% and 90.0%. For the same compound, the “Eventual Correct, Overall Mean % Correct” value [1, 3] was 93.3% and 100.0% and 80.0% and 96.7%, the “Initial Correct, 3 Stimuli” value [1, 3] was 80.0% and 100.0% and 60.0% and 10.0% and 90.0% and the “Initial Correct, 4 Stimuli” value [1, 3] was 60.0% and 40.0% and 50.0% and 30.0%. The “Initial Correct, Overall Mean % Correct” value [1, 3] was 80.0% and 73.3% and 83.3% and 30.0% and 60.0%, the “Initial correct, 2 Stimuli” value [1, 3] was 100.0% and 50.0% and 90.0% and the “% Completion” value [1, 4] was 71.6%. The “Average Response Latency (Avg Rsp Lat)” value [1, 4] was 2029.0 ms, the “Eventual Correct, 2 Stimuli” value [1, 4] was 100.0% and the “Eventual Correct, 3 Stimuli” value [1, 4] was 97.1%. For the same compound, the “Eventual Correct, 4 Stimuli” value [1, 4] was 65.7%, the “Eventual Correct, Overall Mean % Correct” value [1, 4] was 87.6% and the “Initial Correct, 3 Stimuli” value [1, 4] was 71.4%. The “Initial Correct, 4 Stimuli” value [1, 4] was 41.4%, the “Initial Correct, Overall Mean % Correct” value [1, 4] was 69.5% and the “Initial correct, 2 Stimuli” value [1, 4] was 95.7%. The “Eventual Correct, 2 Stimuli” value ([1]; BMS-933043 1.0 mg/kg, individual animals) was 100.0%, the “% Completion” value [1, 5] was 72.7% and 100.0% and 68.1% and 56.9% and 46.1% and 57.8% and the “Average Response Latency (Avg Rsp Lat)” value [1, 5] was 2028.1 ms and 1536.5 ms and 1283.2 ms and 2484.6 ms and 1934.3 ms and 2639.0 ms and 2297.3 ms. For the same compound, the “Eventual Correct, 3 Stimuli” value [1, 5] was 90.0% and 100.0%, the “Eventual Correct, 4 Stimuli” value [1, 5] was 70.0% and 100.0% and 40.0% and 50.0% and 30.0% and the “Eventual Correct, Overall Mean % Correct” value [1, 5] was 86.7% and 96.7% and 80.0% and 83.3% and 76.7% and 90.0% and 100.0%. The “Initial Correct, 3 Stimuli” value [1, 5] was 50.0% and 80.0% and 90.0% and 70.0%, the “Initial Correct, 4 Stimuli” value [1, 5] was 40.0% and 60.0% and 20.0% and 30.0% and 80.0% and the “Initial Correct, Overall Mean % Correct” value [1, 5] was 63.3% and 76.7% and 60.0% and 86.7%. The “Initial correct, 2 Stimuli” value [1, 5] was 100.0% and 90.0%, the “Holm-Sidak Post-Hoc, Treatment+Scopolamine differs from Vehicle+Scopolamine: percent correct on initial attempt, 3-stimuli” value ([1]; all doses of the study) was “n.s” and the “Holm-Sidak Post-Hoc, Treatment+Scopolamine differs from Vehicle+Scopolamine: Choice Response Latency” value [1, 6] was “n.s”. For the same compound, the “Holm-Sidak Post-Hoc, Treatment+Scopolamine differs from Vehicle+Scopolamine: Percent Task Completed” value [1, 6] was “n.s”, the “Holm-Sidak Post-Hoc, Treatment+Scopolamine differs from Vehicle+Scopolamine: percent correct on initial attempt, 2-stimuli” value [1, 6] was “n.s” and the “Holm-Sidak Post-Hoc, Treatment+Scopolamine differs from Vehicle+Scopolamine: percent correct on initial attempt, 4 stimuli” value [1, 6] was “n.s”. The “Percent Correct on Initial Attempt (SEM), 2 stimuli” value (shortened to “Percent Correct … (SEM), 2 stimuli”) [1, 7] was 90.0% (3.1%), the “Percent Correct on Initial Attempt (SEM), 3 stimuli” value (“Percent Correct … (SEM), 3 stimuli” below) [1, 7] was 58.6% (8.0%) and the “Percent Correct on Initial Attempt (SEM), 4 stimuli” value (from here on “Percent Correct … (SEM), 4 stimuli”) [1, 7] was 38.3% (9.8%). The “Percent Correct … (SEM), 2 stimuli” value [1, 8] was 88.6% (3.4%), the “Percent Correct … (SEM), 3 stimuli” value [1, 8] was 75.7% (5.7%) and the “Percent Correct … (SEM), 4 stimuli” value [1, 8] was 35.7% (8.1%). For the same compound, the “Percent Correct … (SEM), 2 stimuli” value [1, 9] was 91.4% (7.0%), the “Percent Correct … (SEM), 3 stimuli” value [1, 9] was 68.6% (11.2%) and the “Percent Correct … (SEM), 4 stimuli” value [1, 9] was 45.0% (5.6%). For the same compound, the “Percent Correct … (SEM), 2 stimuli” value [1, 10] was 95.7% (2.0%), the “Percent Correct … (SEM), 3 stimuli” value [1, 10] was 71.4% (5.9%) and the “Percent Correct … (SEM), 4 stimuli” value [1, 10] was 41.4% (8.3%). The “dose/exposure range across which efficacy was retained” value ([1]; eventual accuracy, scopolamine vsPAL) was no less than 10 fold, the “Cohen's D values at maximally efficacious doses” value ([1]; large treatment effect sizes) was greater than 8 and the “nM total compound in plasma post session” value ([2]; 0.03 mg/kg i.m., individual subjects) was 14.6 nM and 11.9 nM and 13.1 nM. The “nM total compound in plasma post session” value ([2]; 0.10 mg/kg i.m., individual subjects) was 37.9 nM and 51.3 nM and 45.6 nM, the “nM total compound in plasma post session” value ([2]; 0.30 mg/kg i.m., individual subjects) was 156 nM and 134 nM and 143 nM and the “nM total compound in plasma post session” value ([2]; 1.00 mg/kg i.m., individual subjects) was 414 nM and 530 nM and 413 nM. For the same compound, the concentration at 69.8 min ([2]; 0.03 mg/kg, nM total compound in plasma post session, 0.03 mg/kg i.m., individual subjects) was 13.4 nM, the concentration at 69.8 min ([2]; 0.03 mg/kg, nM total compound in plasma post session, 0.03 mg/kg i.m., mean 69.8 min post injection, group mean) was 13.3 nM and the concentration at 69.8 min ([2]; 0.1 mg/kg, nM total compound in plasma post session, 0.10 mg/kg i.m., individual subjects) was 56.3 nM. The concentration at 69.8 min ([2]; 0.1 mg/kg, nM total compound in plasma post session, 0.10 mg/kg i.m., mean 69.8 min post injection, group mean) was 47.8 nM, the concentration at 69.8 min ([2]; 0.3 mg/kg, nM total compound in plasma post session, 0.30 mg/kg i.m., individual subjects) was 125 nM and the concentration at 69.8 min ([2]; 0.3 mg/kg, nM total compound in plasma post session, 0.30 mg/kg i.m., mean 69.8 min post injection, group mean) was 140 nM. For the same compound, the concentration at 69.8 min ([2]; 1 mg/kg, nM total compound in plasma post session, 1.00 mg/kg i.m., individual subjects) was 614 nM, the concentration at 69.8 min ([2]; 1 mg/kg, nM total compound in plasma post session, 1.00 mg/kg i.m., mean 69.8 min post injection, group mean) was 493 nM and the concentration at 69.8 min ([2]; 1 mg/kg, plasma concentration at which efficacy was lost, scopolamine vsPAL model) was 493 nM. For the same compound, the concentration at 69.8 min ([2]; mean plasma concentration at which improved eventual accuracy was observed, experimental subjects on completion of behavioral testing, efficacious doses) was 13.3 to 140 nM, the “net charge relative to acetylcholine” value (human nAChR α7) was 78% and the “peak current response relative to acetylcholine” value (human nAChR α7) was 24%. For the same compound, the “selectivity for nAChR α7 versus the 5-HT3 receptor” value (5-HT3 receptor) was “highly selective”.
